In paper PMC6085608, “Glutathione S-transferases play a role in the detoxification of flumethrin and chlorpyrifos in Haemaphysalis longicornis” (Parasites & Vectors, 2018):

What was measured:
[1] = target: T1, recombinant HlGST2 (Haemaphysalis longicornis, UniProt A0A2Z6FA39); assay: CDNB conjugation kinetics with […] acaricide; format: biochemical; settings: inhibitor, noncompetitive, 5 mM glutathione, CDNB 0.125-2 mM, pH 7.5, 25 °C
T1 construct: gene GST

[2] = target: T2, recombinant HlGST (Haemaphysalis longicornis, UniProt Q6JVN0); assay: CDNB conjugation kinetics with […] acaricide; format: biochemical; settings: 5 mM glutathione, CDNB 0.125-2 mM, pH 7.5, 25 °C
T2 construct: gene GST
T2 sequence (Q6JVN0 1-223): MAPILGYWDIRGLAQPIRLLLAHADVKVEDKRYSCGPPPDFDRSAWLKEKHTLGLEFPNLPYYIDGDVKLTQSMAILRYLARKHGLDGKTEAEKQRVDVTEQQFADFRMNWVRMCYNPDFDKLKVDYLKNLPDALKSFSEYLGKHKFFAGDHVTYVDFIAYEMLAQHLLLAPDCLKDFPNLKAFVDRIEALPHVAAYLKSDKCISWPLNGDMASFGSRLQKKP

T1 sequence (A0A2Z6FA39 1-230): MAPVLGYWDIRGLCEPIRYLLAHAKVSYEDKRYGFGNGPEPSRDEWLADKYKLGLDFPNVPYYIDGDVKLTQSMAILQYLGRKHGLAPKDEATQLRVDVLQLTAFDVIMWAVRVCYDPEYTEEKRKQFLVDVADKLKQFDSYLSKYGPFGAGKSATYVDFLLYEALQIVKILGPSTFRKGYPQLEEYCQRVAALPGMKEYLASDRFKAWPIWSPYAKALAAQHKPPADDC

Row | SMILES | CDNB conjugation kinetics with 0.1 mM acaricide [1] | CDNB conjugation kinetics with 0.1 mM acaricide ([2]; inhibitor, uncompetitive) | CDNB conjugation kinetics with 0.1 mM acaricide ([2]; apparent activator (lowers Km for CDNB))
1 | CCOP(=S)(OCC)Oc1nc(Cl)c(Cl)cc1Cl [chlorpyrifos] | chlorpyrifos and cypermethrin showed noncompetitive inhibition of recombinant HlGST2 |  | 
2 | CC1(C)C(C=C(Cl)c2ccc(Cl)cc2)C1C(=O)OC(C#N)c1ccc(F)c(Oc2ccccc2)c1 (centres unmarked) [flumethrin] |  | flumethrin and cypermethrin showed uncompetitive inhibition of recombinant HlGST | 
3 | CCOP(=S)(OCC)Oc1ccc2c(C)c(Cl)c(=O)oc2c1 [coumaphos] |  |  | Coumaphos significantly decreased the Km of recombinant HlGST, indicating the apparent activation
4 | CC1(C)C(C=C(Cl)Cl)C1C(=O)OC(C#N)c1cccc(Oc2ccccc2)c1 (centres unmarked) [cypermethrin] | chlorpyrifos and cypermethrin showed noncompetitive inhibition of recombinant HlGST2 | flumethrin and cypermethrin showed uncompetitive inhibition of recombinant HlGST | 
